From patent US12441710B2, “Substituted piperidino compounds and related methods of treatment” (Alkermes, Inc., priority 2020, dated 2025) come the findings set out here.

In series [1] the target is T1, human orexin-2 receptor (OX2R) (Homo sapiens, UniProt O43614).
T1 construct: expressed in transfected cells
T1 sequence (O43614 1-444): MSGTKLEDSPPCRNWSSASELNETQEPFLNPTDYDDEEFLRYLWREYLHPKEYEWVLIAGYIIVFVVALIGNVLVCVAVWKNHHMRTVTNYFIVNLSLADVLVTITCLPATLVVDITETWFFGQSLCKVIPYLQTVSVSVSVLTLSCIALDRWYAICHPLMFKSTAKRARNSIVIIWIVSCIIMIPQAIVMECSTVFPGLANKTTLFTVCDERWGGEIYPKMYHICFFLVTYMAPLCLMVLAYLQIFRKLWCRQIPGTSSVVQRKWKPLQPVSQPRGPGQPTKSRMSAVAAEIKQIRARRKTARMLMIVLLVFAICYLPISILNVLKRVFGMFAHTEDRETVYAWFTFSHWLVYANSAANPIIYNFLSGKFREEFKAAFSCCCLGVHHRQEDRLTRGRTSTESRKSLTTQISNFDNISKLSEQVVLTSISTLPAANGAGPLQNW
Briefly: Human OX2R IP1 assay. As to conditions: T-Rex CHO cells stably overexpressing human OX2R; IP1 accumulation, 1 hr at 37 degrees C. It is filed as cell-based. The procedure:
T-Rex CHO cells stably overexpressing the human orexin-2 receptor (OX2R) were induced overnight with 1 μg/mL of doxycycline in a T225 flask. 24 hours post induction, cells were lifted with accutase and plated into a 384-well proxy plate at 30,000 cells/well. Cells were then treated with different test compounds in 1× stimulation buffer containing 10 mM Hepes, 1 mM CaCl2), 0.5 mM MgCl2, 4.2 mM KCl, 146 mM NaCl, 5.5 mM glucose, and 50 mM LiCl, pH 7.4, for 1 hr at 37 degrees C. Following incubation, the reaction was terminated by the addition of detection mix, which is composed of IP1-d2 and anti-IP1-cryptate diluted in lysis buffer as well as 1× stimulation buffer. The plates were allowed to incubate for 1 hour at room temperature and were then read in the EnVision® multimode plate reader, measuring inositol phosphate levels.
Cisbio IP1 is a cell-based functional assay quantifying the accumulation of inositol monophosphate (IP), a metabolite released as a result of orexin 2 receptor activation through the phospholipase C-Gq signaling pathway. This is a competitive immunoassay in which the IP1 produced by the cells upon receptor activation competes with the IP1 analog coupled to the d2 fluorophore (acceptor) for binding to an anti-IP1 monoclonal antibody labeled with Eu cryptate (donor). The measured HTRF-FRET based signal is inversely proportional to the IP1 concentration produced.
The EC50 values reported in Table 2 were obtained according to the human OX2R IP1 assay described above. Data are the mean EC50 values±S.E.M. The compound methyl (2R,3S)-3-((methylsulfonyl)amino)-2-(((cis-4-phenylcyclohexyl)oxy)methyl)-piperidine-1-carboxylate (sometimes referred to herein as Reference Compound A) is a reference compound which is disclosed in Example 5 of PCT publication no. WO2017/135306.

The test system of another series is MDR1. Briefly: MDCK-MDR1 permeability assay. Type of series: in vitro ADME. The conditions noted are these: dog, 3 μM test compound; for efflux ratio at 2 h, 3 μM: Papp (B→A) divided by Papp (A→B), read-out: Efflux ratio (ER); for Papp A→B at 2 h, 3 μM: apical to basolateral, 2 hours at 37 degrees C. How it is done: The bidirectional permeability (Apical to Basal and Basal to Apical directions) of test compounds in MDCK-MDR1 cells were evaluated using MDCK-MDR1 cells seeded in Solvo PreadyPort™ MDCK 96-well plate. Once the plate was received from ReadyCell (Barcelona, Spain), it was treated as per PreadyPort™ user's manual.
For the Apical to Basolateral (A→B) permeability, 80 μL of test compound (3 μM) co-dosed with LY (Lucifer Yellow) (100 μM) in HBSS (Hank's Balanced Salt Solution) assay buffer was added to the donor side (A) while 250 μL of HBSS buffer was added to the receiver side (B). For the Basolateral to Apical (B→A) permeability, 255 μL of test compound (3 μM) in HBSS assay buffer was added to the donor side (B) while 75 μL of HBSS buffer containing LY (100 μM) was added to the receiver side (A).
The plate was placed in an incubator set at 37 degrees C. After 10 minutes of pre-warming, 5 μL aliquot was taken from donor compartment and set aside as the dosing solution. The MDCK-MDR1 incubation plate was placed back into the incubator for 2 hours of incubation at 37 degrees C. After 2 hours of incubation, 25 μL and 5 μL aliquots were removed from the receiver and donor sides, respectively. To the 5 μL aliquots taken from the donor sides (before and after a 2-hour incubation) were diluted with 20 μL of the HBSS buffer. All samples were mixed with 150 μL with acetonitrile containing internal standard (IS) and 200 μL water, and analyzed by LC-MS/MS.
The apparent permeability (Papp) was calculated using the following formula: Papp=dQ/dt×1/A×C0 where: • dQ/dt: amount of translocated material over incubation time (nmol/s) • A: area of insert (0.14 cm^2 for PreadyPort™ MDR1-96) • C0: initial concentration of product applied in apical (A→B) or basal (B→A) compartment (nmol/mL).
The efflux ratio (ER) was measured by dividing the Papp (basolateral to apical direction) by Papp (apical to basolateral direction). It is a general measure of the involvement of active processes. An ER >2 is considered positive for active transport.
The data reported in Table 3 were obtained according to the MDCK-MDR1 permeability assay described above.

The nature of series [2]: Hepatocytes stability assay (human hepatocytes). It is filed as in vitro ADME. As to conditions: both sexes, cryopreserved hepatocytes, 1 μM test compound, 1×10^6 cell/mL, read-out: CLint (μL/min/million cells). In short, it runs like this: (§1)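 Pooled cryopreserved human hepatocytes (50 donors, mixed gender), 1×10^6 cells/mL in KHB, with 1 μM compound (0.1% DMSO) at 37 degrees C, sampled 0–240 min. Parent depletion by LC-MS/MS; first-order fit gave T1/2 and CLint, scaled to hepatic clearance by well-stirred model with fu assumed 1, plus extraction ratio.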

In the next series the test system is human hepatocytes. Briefly: Hepatocytes stability assay (human hepatocytes). Type of series: in vitro ADME. As to conditions: hepatic clearance divided by liver blood flow, fu assumed unity. In short, it runs like this: as §1
The test system of a further series is Sprague-Dawley rats. Briefly: Assessment of wake promotion in Sprague-Dawley rats (EEG/EMG). Type of series: in vivo, rat. The conditions noted are these: 3 mpk, male Sprague-Dawley rats, 6-hour post-dose period. How it is done: Wake promotion was assessed using electroencephalography (EEG) and electromyography (EMG) in adult male Sprague-Dawley rats. All rats (Charles River Laboratories, Raleigh, NC, USA) were intraperitoneally implanted with telemetry devices (F50-EEE, Data Sciences International Inc., MN, USA) under isoflurane anesthesia. For EEG, stainless steel screws were implanted over frontal cortex and parietal cortex, and reference screws were placed over cerebellum. Additionally, an electrode was placed in neck muscle for EMG. Rats were given carprofen post-surgery and underwent a 7 to 10-day recovery period. Rats habituated to the experimental room for 7 days and were maintained on a 12-hour light-dark cycle.
EEG and EMG data were recorded using the DSI telemetry system and Ponemah software (Data Sciences International Inc., MN, USA). Sleep-wake stages were scored both manually and with Somnivore, a supervised machine learning software platform, in 10 second epochs. Records were visually inspected as needed post-processing.
All test compounds were dissolved in 5% DMSO and suspended in 95% saline with 0.5% methylcellulose and 0.5% tween. […] Unless otherwise indicated, all compounds were dosed orally. Recordings for each rat were initiated immediately after dosing and lasted for 6 hours post-dose.
Two key endpoints include wakefulness time and cortical activation time. […]

As to `C[C@@H](c1ccccc1)N1CC[C@H](NS(C)(=O)=O)C(COC2CCC(c3ccccc3)CC2)C1` (some centres unmarked) [Compound 37], the EC50 in series [1] was over 1 µM. Further, in the series on MDR1, the efflux ratio at 2 h, 3 μM is 12 and the Papp A→B at 2 h, 3 μM worked out at 0.38 ×10⁻⁶ cm/s. Moreover, the hepatocyte CLint at 1 μM in series [2] was determined as 99 µL/min/1e6 cells. In addition, the “Extraction Ratio (ER)” value in the series on human hepatocytes was 0.94.

For the compound `COC(=O)N1CCC[C@H](NS(C)(=O)=O)[C@@H]1CO[C@H]1CC[C@@H](c2ccccc2)CC1` [Reference Compound A, methyl (2R,3S)-3-((methylsulfonyl)amino)-2-(((cis-4-phenylcyclohexyl)oxy)methyl)-piperidine-1-carboxylate, reference compound], the EC50 in series [1] is under 0.1 µM. Also, the “Extraction Ratio (ER)” value in the series with human hepatocytes is recorded as 0.92. The “Mean cortical activation time (% vehicle treatment)” value in the series on Sprague-Dawley rats (SC) is given as 118.75 % vehicle treatment.

On to `CS(=O)(=O)N[C@H]1CCN(c2ccccn2)CC1COC1CCN(c2ncccn2)CC1` (some centres unmarked) [Compound 1], for which, in series [1], the EC50 is over 1 µM. In addition, in the series on MDR1, the efflux ratio at 2 h, 3 μM was 12 and the Papp A→B at 2 h, 3 μM was 2.7 ×10⁻⁶ cm/s. Moreover, the hepatocyte CLint at 1 μM in series [2] was 31 µL/min/1e6 cells. In addition, in the series on human hepatocytes, the “Extraction Ratio (ER)” value turned out to be 0.82.

On to `O=S(=O)(N[C@H]1CCN(c2ccccn2)C[C@H]1CO[C@H]1CC[C@@H](c2ccccc2)CC1)C(F)(F)F` [Compound 53], for which, in series [1], the EC50 is under 0.1 µM. Besides, the “Mean cortical activation time (% vehicle treatment)” value in the series on Sprague-Dawley rats (PO) is listed as 105.00 % vehicle treatment.

As for `C[C@H](c1ccccc1)N1CC[C@H](NS(C)(=O)=O)C(COC2CCC(c3ccccc3)CC2)C1` (some centres unmarked) [Compound 38], the EC50 in series [1] is over 1 µM. Besides, in the series on MDR1, the efflux ratio at 2 h, 3 μM was determined as 3.2 and the Papp A→B at 2 h, 3 μM came to 0.74 ×10⁻⁶ cm/s. For the same compound, the hepatocyte CLint at 1 μM in series [2] worked out at 91 µL/min/1e6 cells. The “Extraction Ratio (ER)” value in the series on human hepatocytes stood at 0.93.

For orientation: EC50 means the concentration at which the effect is half-maximal. For orientation: Papp A→B means how fast a substance crosses the layer from the apical side.
